What was measured:
[1] = test system: tumor necrosis factor (TNF)-α; assay: ELISA of TNF-α in BALF and blood of mice with LPS-induced sepsis; type: in vivo, C57BL/6 mice; conditions: 12 hours after final injection
Description: (§1) Specifically, 0.1 ml of phosphate buffered saline (PBS; Gibco, Grand Island, N.Y., USA) was injected intraperitoneally (i.p.) into mice of the control, and 12 hours after the injection, 0.1 ml of PBS was intraperitoneally injected again into each mouse. 1 μg of LPS (Escherichia coli serotype 0111:B4, Sigma-Aldrich, St. Louis, Mo., USA) dissolved in 0.1 ml of PBS was injected intraperitoneally (i.p.) into mice of the LPS group to induce sepsis, and 12 hours after sepsis induction, 0.1 ml of PBS was intraperitoneally injected into each mouse. […]
(§2) Specifically, for the analysis of bronchoalveolar lavage fluid and blood, 12 hours after the final injection into mice of each experimental group of Example 1, 1 μg/g of Zoletil®50 (a combined preparation of tiletamine and zolazepam, Virbac Laboratories, Carros, France) as an anesthetic and 0.1 U/g of heparin sodium (Green Cross Co., Yongin, Korea) were intraperitoneally injected into each mouse to minimize the effect of aches or pains on immunity. […] The levels of tumor necrosis factor (TNF)-α, IL-6, and IL-1β in BALF and blood were measured using a mouse enzyme-linked ELISA kit (R&D Systems Inc., Minneapolis, Minn., USA) according to the manufacturer's instructions. Samples collected from each group were analyzed in triplicate.

IL-6 = assay: ELISA of IL-6 in BALF and blood of mice with LPS-induced sepsis; type: in vivo, C57BL/6 mice; conditions: 12 hours after final injection
Description: as §1, §2

[2] = test system: Toll-like receptor 4 (TLR4); assay: Immunohistochemical staining for TLR4 in heart or lung tissues; type: in vivo, C57BL/6 mice; conditions: heart and lungs
Description: Specifically, 0.1 ml of phosphate buffered saline (PBS; Gibco, Grand Island, N.Y., USA) was injected intraperitoneally (i.p.) into mice of the control, and 12 hours after the injection, 0.1 ml of PBS was intraperitoneally injected again into each mouse. 1 μg of LPS (Escherichia coli serotype 0111:B4, Sigma-Aldrich, St. Louis, Mo., USA) dissolved in 0.1 ml of PBS was injected intraperitoneally (i.p.) into mice of the LPS group to induce sepsis, and 12 hours after sepsis induction, 0.1 ml of PBS was intraperitoneally injected into each mouse. 1 μg of LPS and 100 mg/kg of ammonium glycyrrhizinate (GR; Abcam Inc., Cambridge, UK) dissolved in 0.1 ml of PBS were injected intraperitoneally (i.p.) into mice of the LPS+GR group, and 12 hours after the injection, 100 mg/kg of ammonium glycyrrhizinate dissolved in 0.1 ml of PBS was intraperitoneally injected into each mouse.
It was determined whether TLR4 expression levels were inhibited when mice with sepsis induced by LPS were treated with glycyrrhizin. The expression level of Toll-like receptor 4 (TLR4) was confirmed using immunohistochemistry and western blot analysis.
Specifically, for immunohistochemical staining for TLR4, the heart or lung tissues of mice of each experimental group of Example 1 were cut to 4 μm after deparaffinization treatment. […] TLR4 intensity was quantified using NIH Image J software.

[3] = test system: heart tissues and lung tissues; assay: Histopathologic analysis and injury score of heart and lung tissues in LPS-induced sepsis; type: in vivo, C57BL/6 mice; conditions: 5-point scale 0-4; LPS 1 μg i.p.; GR 100 mg/kg i.p. twice
Description: Animal experiments were performed according to the National Institutes of Health (NIH) guidelines for the care and use of experimental animals. This study was conducted with the approval of the Konkuk University Animal Care and Use Committee (KU16062). 8-week-old male C57BL/6 mice without specific pathogens were used, and as needed, experimental groups were divided into three groups: a control, an LPS group, and an LPS+GR group.
Specifically, 0.1 ml of phosphate buffered saline (PBS; Gibco, Grand Island, N.Y., USA) was injected intraperitoneally (i.p.) into mice of the control, and 12 hours after the injection, 0.1 ml of PBS was intraperitoneally injected again into each mouse. […]
Specifically, the heart tissues and lung tissues of mice of each experimental group prepared in Example 1 were fixed in a 4% paraformaldehyde solution (Biosesang, Seongnam, Korea) at 25° C. overnight and inserted into paraffin blocks. […] Heart (including left and right ventricles) or lung injury was scored based on Table 2 below. Each score was determined by a 5-point scale such as 0: minimal injury, 1: minor injury, 2: moderate injury, 3: severe injury, and 4: maximum injury.

myeloid cells = assay: Differentiation of LPS-treated mouse myeloid cells treated with glycyrrhizin (in vitro), flow cytometric analysis; type: cell-based, C57BL/6 mice; conditions: LPS 1 ng/ml, GR 100 μg/ml, incubation 3 days
Description: To verify the in vivo experimental results of Example <2-1>, flow cytometric analysis was used to confirm whether differentiation into CD11b+Gr1 myeloid cells or MDSCs from myeloid cells was induced when myeloid cells of mice were treated with glycyrrhizin (GR).
Specifically, myeloid cells were obtained by washing the femoral region of each of 8-week-old male C57BL/6 male mice without specific pathogens with a Roswell Park Memorial Institute (RPMI) 1640 medium in a sterile state using a syringe with a 27-gauge needle. Red blood cells (RBCs) of the collected bone marrow were lysed with an erythrolysis solution, and then the remaining cells were treated with 10% fetal bovine serum, 40 ng/ml of IL-6, and 40 ng/ml of granulocyte-macrophage colony stimulating factor at 37° C. Thereafter, only 1 ng/ml of LPS was treated (LPS group) or 100 μg/ml of GR was additionally treated (LPS+GR group) after LPS treatment. The control was treated with 0.1 ml of PBS. After incubation for 3 days, the same flow cytometric analysis as in Example <2-1> was performed to measure the absolute number of myeloid cells of each group, and then all the obtained data was analyzed using FlowJo software (Tree Star Inc., Ashland, Oreg., USA) to determine the ratio of MDSCs to CD11b+Gr1 myeloid cells.

[4] = parenthesised line under cell number

Q: What does the source list for lipopolysaccharide [LPS]?
A: TNF-α ([1]; BALF): 284.20 ± 56.96 pg/µL; TNF-α ([1]; Blood): 98.78 ± 9.17 pg/µL; IL-6 (IL-6; BALF): 650.26 ± 11.02 pg/µL; IL-6 (IL-6; Blood): 172.63 ± 14.22 pg/µL; expression level of TLR4 by immunohistochemistry [2]: significantly higher in both the heart and the lungs compared to the control; injury score, heart tissues [3]: 3.3±0.8; injury score, lung tissues [3]: 3.5±0.5; CD11b + Gr1 myeloid cells (number of cells) (myeloid cells): 16,500 ± 400; MDSCs (number of cells) (myeloid cells): 5,200 ± 300; MDSCs/CD11b + Gr1 myeloid cells × 100 (%) (myeloid cells): 32.45 ± 2.69%; Total cell count (myeloid cells): 47,300 ± 1,200; CD11b + Gr1 myeloid cells (value in parentheses) (myeloid cells; [4]): (34.61 ± 4.51); MDSCs (value in parentheses) (myeloid cells; [4]): (11.23 ± 1.25)

From US20200071667A1, “COMPOSITION COMPRISING GLYCYRRHIZIN FOR INDUCING DIFFERENTIATION INTO MYELOID-DERIVED SUPPRESSOR CELL FROM MYELOID CELL” (Konkuk University Glocal Industry-Academic Collabo, priority 2018, published 2020)
